In brackets after ≈: the same amount, converted by molar mass. Read-outs that look alike come from different tables or passages of the source. Where a SMILES comes first, the peptide text is derived from it.
How the values were obtained:
Type in all cases: cell-based
[1] = system: Candida albicans Clinical isolate - human; test: microbe, parasite or virus in culture; details: for MIC: Candida albicans, clinical isolate
Procedure: (§1) Antimicrobial testing of 78 cathelicidin MPs was performed in two phases as outlined in Figure 1 . In phase I, 40 peptides (27 extant and 13 ancestral) were selected for testing based on rank (outlined above) and similarity to published marsupial cathelicidins with known antimicrobial activity ([33], [41]–[43]). These peptides were tested against nine bacteria (Staphylococcus aureus ATCC 29213 and clinical isolate, Escherichia coli ATCC 25922 and clinical isolate, Pseudomonas aeruginosa ATCC 27853 and clinical isolate, Streptococcus agalactiae ATCC 12386 and clinical isolate, Streptococcus pneumoniae ATCC 49619) and three fungi (Candida krusei ATCC 6258, Candida parapsilosis ATCC 22019, and Candida albicans clinical isolate). Details regarding these strains are available in Supplementary Table 4 . The antimicrobial activity of cathelicidins was determined as the minimum inhibitory concentration (MIC), which was the lowest concentration of cathelicidin that prevented visible bacterial or fungal growth, relative to the negative control. […] Minimum bactericidal concentration (MBC) and/or minimum fungicidal concentration (MFC) was conducted to determine microbicidal versus static action. Activity against S. aureus ATCC, E. coli ATCC, and Pseudomonas aeruginosa ATCC 27853 was examined in the presence of divalent cations to determine the impact of inhibitors.
(§2) Antimicrobial activity was determined using a broth microdilution susceptibility assay in 96 well polypropylene plates according to Clinical Laboratory Standards Institute guidelines M07-A and M26A as described previously ([33], [42], [43]). The bacterial and fungal isolates from humans and animals used in this study are outlined in Supplementary Table 4 . Only yeasts were included in the panel of fungi as they have been used in the susceptibility testing of eutherian ([3], [81]–[83]) and other marsupial cathelicidins previously ([33], [42], [43]). Cathelicidin mature peptides were solubilized in DMSO and serially diluted in duplicate from 128-0.25μg/mL in a final volume of 100µL. For bacteria, cathelicidins were diluted in Mueller Hinton Broth (MHB) with or without 10% lysed horse blood, and with (MH II B) or without (MHB) calcium and magnesium cations. For fungi, cathelicidins were diluted in Roswell Park Memorial Institute medium (RPMI)-1640 MOPS. Ampicillin or tetracycline were included as a positive control for Gram-positive and -negative bacteria respectively, while amphotericin B was used for fungi. A media-only negative control and growth control (no cathelicidin) were also included on each plate. Bacteria were sub-cultured on Muller Hinton agar (MHA) or sheep blood agar (BA), and fungi on Sabouraud dextrose agar (SAB), 20–24 hours prior to the test. Colonies were suspended in saline, the concentration adjusted to a 0.5 McFarland standard, and then diluted in media to a concentration of 1.0 x 10^6 cells/mL. Then, 100μL was added to each well of the cathelicidin dilution plate, giving a final inoculum density of 5 x 10^5 CFU/mL and cathelicidin concentration of 64-0.125μg/mL. Colony counts were performed on MHA/BA/SAB to confirm inoculum density. All plates were incubated at 35°C for 20–24 hours, depending on the strain.
(§3) Colonies were counted and compared to the colony count of the starting inoculum.

Candida krusei ATCC 6258 = test: microbe, parasite or virus in culture
Procedure: as §1, §2, §3

[2] = system: Candida parapsilosis ATCC 22019; test: microbe, parasite or virus in culture; details: for MIC: Lodderomyces parapsilosis, ATCC22019
Procedure: as §1, §2, §3

[3] = system: Escherichia coli ATCC 25922; test: microbe, parasite or virus in culture; details: ATCC 25922
Outline: (§4)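 Broth microdilution following CLSI M07-A/M26A, using peptides at 64–0.125 μg/mL final in MHB, with or without 10% lysed horse blood and with or without Ca/Mg cations (MH II B). Inoculum 5 x 10^5 CFU/mL, incubated 20–24 h at 35 °C; MIC is lowest concentration preventing visible growth, MBC by colony counts versus starting inoculum.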

[4] = system: Escherichia coli clinical isolate - animal; test: microbe, parasite or virus in culture; details: clinical isolate - animal
Outline: as §4

[5] = system: Pseudomonas aeruginosa ATCC 27853; test: microbe, parasite or virus in culture; details: ATCC 27853
Outline: as §4

[6] = system: Pseudomonas aeruginosa clinical isolate - animal; test: microbe, parasite or virus in culture; details: clinical isolate - animal
Outline: as §4

[7] = system: Staphylococcus aureus ATCC 29213; test: microbe, parasite or virus in culture; details: ATCC 29213
Outline: as §4

[8] = system: Staphylococcus aureus clinical isolate - animal; test: microbe, parasite or virus in culture; details: clinical isolate - animal
Outline: as §4

[9] = system: Streptococcus agalactiae ATCC 12386; test: microbe, parasite or virus in culture; details: ATCC 12386; read-out: MIC S. agalactiae ATCC
Procedure: as §1, §2, §3

[10] = system: Streptococcus agalactiae Clinical isolate - animal; test: microbe, parasite or virus in culture; details: clinical isolate - animal; read-out: MIC S. agalactiae
Procedure: as §1, §2, §3

[11] = system: Streptococcus pneumoniae ATCC 49619; test: microbe, parasite or virus in culture; details: ATCC 49619; read-out: MIC S. pneumoniae ATCC
Procedure: as §1, §2, §3

[12] = system: Staphylococcus aureus clinical isolate – animal, methicillin-resistant (MRSA); details: clinical isolate – animal, methicillin-resistant
Procedure: as §1, §2, §3

[13] = system: Staphylococcus aureus clinical isolate – animal, penicillin-resistant (PRSA); details: clinical isolate – animal, penicillin-resistant (PRSA)
Procedure: as §1, §2, §3

[14] = system: six bacteria (S. aureus, E. coli, P. aeruginosa; ATCC and clinical isolate)
Procedure: as §1
In phase II, the remaining 38 peptides (37 extant and one ancestral) were tested against six bacteria (S. aureus ATCC and clinical isolate, E. coli ATCC and clinical isolate, and P. aeruginosa ATCC and clinical isolate). […] No further testing on phase II peptides was performed. Detailed methods for all assays are provided in subsequent sections.
as §2, §3

[15] = RPMI-1640 MOPS, 5 x 10^5 CFU/mL, 35°C 20–24 hours, duplicate
[16] = read-out: MIC P. aeruginosa ATCC
[17] = ATCC 6258, read-out: MIC C. krusei ATCC
[18] = read-out: MIC in the presence of cations E. coli ATCC

| Compound | MBC E. coli ATCC [3] | MBC E. coli [4] | MIC [4] | MIC in the presence of cations E. coli [4] | MIC [5, 16] | MIC ([6]; read-out: MIC P. aeruginosa) | MBC S. aureus ATCC [7] | MIC S. aureus ATCC [7] | MIC in the presence of cations S. aureus ATCC [7] | MBC S. aureus [8] | MIC S. aureus [8] | MIC in the presence of cations S. aureus [8] | MIC (Candida krusei ATCC 6258; [17]) | MIC [9] | MIC [10] | MIC [11] | MBC MRSA [12] | MIC MRSA [12] | MBC PRSA [13] | MIC PRSA [13] | also measured |
| --- | --- | --- | --- | --- | --- | --- | --- | --- | --- | --- | --- | --- | --- | --- | --- | --- | --- | --- | --- | --- | --- |
| C[C@@H]1[C@H](O)[C@@H](C)/C=C/C=C/C=C/C=C/C=C/C=C/C=C/[C@H](O[C@@H]2O[C@H](C)[C@@H](O)[C@H](N)[C@@H]2O)C[C@@H]2O[C@](O)(C[C@@H](O)C[C@@H](O)[C@H](O)CC[C@@H](O)C[C@@H](O)CC(=O)O[C@H]1C)C[C@H](O)[C@H]2C(=O)O [Amphotericin B, reference compound] |  |  |  |  |  |  |  |  |  |  |  |  |  |  |  |  |  |  |  |  | MIC [1, 15]: 0.5 µg/mL; MIC ([1]; µM version of Table 4, read-out: MIC C. albicans): 0.5 µM; MIC (Candida krusei ATCC 6258; Pichia kudriavzevii, ATCC6258, RPMI-1640 MOPS, 5 x 10^5 CFU/mL, 35°C 20–24 hours, duplicate): 1 µg/mL; MIC (Candida krusei ATCC 6258; Pichia kudriavzevii, ATCC6258, µM version of Table 4, read-out: MIC C. krusei ATCC): 1 µM; MIC [2, 15]: 0.5 µg/mL; MIC ([2]; µM version of Table 4, read-out: MIC C. parapsilosis ATCC): 0.5 µM |
| CC[C@H](C)[C@H](NC(=O)[C@H](CCCNC(=N)N)NC(=O)[C@@H](N)CCCCN)C(=O)NCC(=O)N[C@@H](CC(C)C)C(=O)NCC(=O)NCC(=O)N[C@@H](CC(C)C)C(=O)N[C@H](C(=O)N[C@@H](CCCNC(=N)N)C(=O)N[C@@H](CCCNC(=N)N)C(=O)N[C@H](C(=O)N[C@@H](CC(C)C)C(=O)N[C@@H](CC(=O)O)C(=O)N[C@@H](CCCNC(=N)N)C(=O)N[C@H](C(=O)N[C@@H](CCCNC(=N)N)C(=O)N[C@@H](CCCNC(=N)N)C(=O)N[C@@H](CCCNC(=N)N)C(=O)NCC(=O)O)[C@@H](C)CC)[C@@H](C)CC)C(C)C [AnstCath4] (H-KRIGLGGLVRRILDRIRRRG-OH) | 27.1 (27.1)^27.1 µM | 27.1 µM (≈ 64 µg/mL) | 13.5 µM (≈ 31.9 µg/mL) | 27.1 µM | >27.1 µM | >27.1 µM | 13.5 (13.5)^13.5 µM | 13.5 (13.5)^13.5 µM | 13.5 (13.5)^13.5 µM | 13.5 (13.5)^13.5 µM | 13.5 (13.5)^13.5 µM | 13.5 (13.5)^13.5 µM | 8.9 µM | >27.1 µM | >27.1 µM | >27.1 µM | 27.1 µM (≈ 64 µg/mL) | 13.5 µM (≈ 31.9 µg/mL) | 6.7 µM (≈ 15.8 µg/mL) | 6.7 µM (≈ 15.8 µg/mL) | MIC E. coli ATCC [3]: 27.1 (27.1)^27.1 µM; MFC C. parapsilosis ATCC ([2]; ATCC 22019): 64 (>64) µg/mL |
| CC[C@H](C)[C@H](NC(=O)[C@H](CCC(N)=O)NC(=O)[C@H](Cc1ccccc1)NC(=O)[C@H](CC(N)=O)NC(=O)[C@H](CCCCN)NC(=O)[C@H](CC(C)C)NC(=O)[C@H](CCCNC(=N)N)NC(=O)[C@H](CCCCN)NC(=O)[C@H](CCCCN)NC(=O)[C@@H](NC(=O)[C@H](CO)NC(=O)[C@H](CCCCN)NC(=O)CNC(=O)[C@H](CC(C)C)NC(=O)[C@H](CCCCN)NC(=O)[C@H](CCCCN)NC(=O)[C@H](CC(C)C)NC(=O)[C@H](CCCCN)NC(=O)[C@H](CCCCN)NC(=O)[C@H](CCCNC(=N)N)NC(=O)[C@H](CC(C)C)NC(=O)CNC(=O)[C@@H](N)CCCNC(=N)N)[C@@H](C)CC)C(=O)NCC(=O)N[C@@H](Cc1ccccc1)C(=O)N[C@@H](CO)C(=O)N[C@H](C(=O)N1CCC[C@H]1C(=O)N[C@@H](Cc1ccccc1)C(=O)N[C@@H](C)C(=O)NCC(=O)O)C(C)C [PegaCath4] (H-RGLRKKLKKLGKSIKKRLKNFQIGFSVPFAG-OH) | 2.2 µM (≈ 7.8 µg/mL) | 1.1 µM (≈ 3.9 µg/mL) | 1.1 µM (≈ 3.9 µg/mL) |  | 2.2 µM (≈ 7.8 µg/mL) | 2.2 µM (≈ 7.8 µg/mL) |  |  |  |  | 18 (>18)^18 µM | 18 (>18)^18 µM |  | >18 µM | >18 µM | >18 µM | > 18 µM | 18 µM (≈ 63.8 µg/mL) | > 18 µM | 4.5 µM (≈ 15.9 µg/mL) | MIC ([3]; read-out: MIC E. coli ATCC): 1.1 µM (≈ 3.9 µg/mL); MIC [3, 18]: 1.1 µM; MBC P. aeruginosa ATCC [5]: 4.5 µM (≈ 15.9 µg/mL); MIC ([5]; read-out: MIC in the presence of cations P. aeruginosa ATCC): 2.2 µM; MBC P. aeruginosa [6]: 4.5 µM (≈ 15.9 µg/mL); MIC ([6]; read-out: MIC in the presence of cations P. aeruginosa): 2.2 µM; MIC ([7]; read-out: MIC S. aureus ATCC): 9 µM (≈ 31.9 µg/mL); MIC ([7]; read-out: MIC in the presence of cations S. aureus ATCC): 18 µM; MIC against at least one strain [14]: 4 µg/mL (≈ 1.13 µM) |
| CC[C@H](C)[C@H](NC(=O)[C@H](CCCNC(=N)N)NC(=O)[C@@H](N)CCCCN)C(=O)NCC(=O)N[C@@H](CC(C)C)C(=O)NCC(=O)NCC(=O)N[C@@H](CC(C)C)C(=O)N[C@H](C(=O)N[C@@H](CCCNC(=N)N)C(=O)N[C@@H](CCCNC(=N)N)C(=O)N[C@H](C(=O)N[C@@H](Cc1c[nH]c2ccccc12)C(=O)N[C@@H](CC(N)=O)C(=O)N[C@@H](CCCNC(=N)N)C(=O)N[C@H](C(=O)N[C@@H](CCCNC(=N)N)C(=O)N[C@@H](CCCNC(=N)N)C(=O)N[C@@H](CCCNC(=N)N)C(=O)NCC(=O)O)[C@@H](C)CC)[C@@H](C)CC)C(C)C [SmcrCath3] (H-KRIGLGGLVRRIWNRIRRRG-OH) | 6.5 µM (≈ 15.8 µg/mL) | 6.5 µM (≈ 15.8 µg/mL) | 3.2 µM (≈ 7.79 µg/mL) | 6.5 µM | >26.3 µM | 26.3 µM (≈ 64 µg/mL) | 6.5 (6.5)^6.5 µM | 6.5 (6.5)^6.5 µM | 6.5 (6.5)^6.5 µM | 6.5 (6.5)^6.5 µM | 6.5 (6.5)^6.5 µM | 6.5 (6.5)^6.5 µM | 6.5 µM | >26.3 µM | >26.3 µM | >26.3 µM | 6.5 µM (≈ 15.8 µg/mL) | 6.5 µM (≈ 15.8 µg/mL) | 6.5 µM (≈ 15.8 µg/mL) | 3.2 µM (≈ 7.79 µg/mL) | MIC ([3]; read-out: MIC E. coli ATCC): 6.5 µM (≈ 15.8 µg/mL); MIC [3, 18]: 13.1 µM; MBC P. aeruginosa [6]: > 26.3 µM; MFC C. albicans ([1]; Clinical isolate - human): 26.3 µM (≈ 64 µg/mL) |
